Data taken from US20240245791A1, “METHODS AND COMPOSITIONS FOR LOCALIZATION OF GROWTH FACTORS” (Arizona Board of Regents on Behalf of the University of …, priority 2021, published 2024).
Where two headings read alike, the source gives them in different places.

Columns and labels:
collagen IV sites = conditions: unconjugated VEGF; limited to the number of collagen IV sites available; cited from earlier work
collagen IV [1] = conditions: vs scrambled peptide control biotin-CBPi-QK; measured using Alexafluor 488 streptavidin
collagen IV [2] = experiment: binding assay to collagen IV of CBP-VEGF vs CBPi-VEGF, ELISA for VEGF121; conditions: vs scrambled peptide control CBPi-VEGF; measured using an ELISA for VEGF121
Experimental: The result is measured using an ELISA for VEGF121.

## VEGF
Collagen IV sites
  share of VEGF added to a scaffold that will bind: 5%

## biotin-CQDSETRT-KLTWQELYQLKYKGI-COOH (SEQ ID NO: 16) [biotin-CBP-QK]
Collagen IV [1]
  binding to collagen IV: significantly greater than the scrambled control at all concentrations

B1: CBP-VEGF: VEGF121 protein conjugated by click chemistry to collagen binding protein CBP (CQDSETRTFY, SEQ ID NO: 1) (conjugate)
chain: APMAEGGGQNHHEVVKFMDVYQRSYCHPIETLVDIFQEYPDEIEYIFKPSCVPLMRCGGCCNDEGLECVPTEESNITMQIMRIKPHQGQHIGEMSFLQHNKCECRPKKDRARQEKCDKPRR
peptide: CQDSETRTFY
Collagen IV [2]
  binding to collagen IV: significantly greater than the scrambled control at all concentrations
